# Laboratory results reported in US8580762B2, “Substituted purine and 7-deazapurine compounds” (Epizyme, Inc., priority 2010, dated 2013).
# Biological target: DOT1L(1-416) (Homo sapiens, UniProt Q8TEK3)
# Test: Determination of IC50: DOT1L(1-416) methyltransferase assay, 3H-SAM, oligonucleosome substrate, Flashplate
# Assay type: biochemical
# Settings: class symbols; read-out: DOT1L IC50
# Method in brief: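 Compounds in 10-point 3-fold DMSO dilutions were tested in reactions started with substrate mix of 200 nM [3H]-SAM, 600 nM unlabeled SAM and 20 nM oligonucleosome. Reactions ran 120 min at room temperature and were quenched with 100 μM SAM. Labeled substrate was captured on streptavidin Flashplates and counted by scintillation to give IC50.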
# Chain of DOT1L(1-416) (Q8TEK3 1-416): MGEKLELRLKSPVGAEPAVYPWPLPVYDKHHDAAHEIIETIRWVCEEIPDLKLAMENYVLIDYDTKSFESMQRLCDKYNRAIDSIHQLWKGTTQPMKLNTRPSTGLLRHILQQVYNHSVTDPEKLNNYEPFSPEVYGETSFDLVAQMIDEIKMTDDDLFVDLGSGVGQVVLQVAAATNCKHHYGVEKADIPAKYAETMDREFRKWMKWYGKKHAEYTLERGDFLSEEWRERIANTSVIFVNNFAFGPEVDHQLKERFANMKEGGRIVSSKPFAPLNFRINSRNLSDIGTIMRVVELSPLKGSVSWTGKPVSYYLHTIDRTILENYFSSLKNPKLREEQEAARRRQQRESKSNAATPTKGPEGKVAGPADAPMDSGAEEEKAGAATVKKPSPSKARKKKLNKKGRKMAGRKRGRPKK
row,SMILES,IC50 [nM]
1,"COCC(C)(C)c1ccc2[nH]c(CC[C@H]3C[C@@H](N(C[C@H]4O[C@@H](n5cnc6c(N)ncnc65)[C@H](O)[C@@H]4O)C(C)C)C3)nc2c1 [Compound 122, (2R,3R,4S,5R)-2-(6-amino-9H-purin-9-yl)-5-((isopropyl((1r,3S)-3-(2-(5-(1-methoxy-2-methylpropan-2-yl)-1H-benzo[d]imidazol-2-yl)ethyl)cyclobutyl)amino)methyl) tetrahydrofuran-3,4-diol]",< 100
2,"CC(C)N(C[C@H]1O[C@@H](n2cnc3c(N)ncnc32)[C@H](O)[C@@H]1O)[C@H]1C[C@H](CCc2nc3cc(CC(F)(F)F)ccc3[nH]2)C1 [Compound 123, (2R,3R,4S,5R)-2-(6-amino-9H-purin-9-yl)-5-((isopropyl((1s,3R)-3-(2-(5-(2,2,2-trifluoroethyl)-1H-benzo[d]imidazol-2-yl)ethyl)cyclobutyl)amino)methyl) tetrahydrofuran-3,4-diol]",< 100
3,"CC(C)N(C[C@H]1O[C@@H](n2cnc3c(N)ncnc32)[C@H](O)[C@@H]1O)[C@H]1C[C@@H](CCc2nc3cc(CC(F)(F)F)ccc3[nH]2)C1 [Compound 124, (2R,3R,4S,5R)-2-(6-amino-9H-purin-9-yl)-5-((isopropyl((1r,3S)-3-(2-(5-(2,2,2-trifluoroethyl)-1H-benzo[d]imidazol-2-yl)ethyl)cyclobutyl)amino)methyl) tetrahydrofuran-3,4-diol]",< 100
4,"CC(C)N(C[C@H]1O[C@@H](n2cnc3c(N)ncnc32)[C@H](O)[C@@H]1O)[C@H]1C[C@@H](CCc2nc3cc(C(C)(C)C#N)ccc3[nH]2)C1 [Compound 128, 2-(2-(2-((1S,3r)-3-((((2R,3S,4R,5R)-5-(6-amino-9H-purin-9-yl)-3,4-dihydroxytetrahydro-furan-2-yl)methyl)(isopropyl)amino)cyclobutyl)ethyl)-1H-benzo[d]imidazol-5-yl)-2-methylpropanenitrile]",< 100
5,"CC(C)N(C[C@H]1O[C@@H](n2cnc3c(N)ncnc32)[C@H](O)[C@@H]1O)[C@H]1C[C@H](CCc2nc3cc(C(C)(C)C#N)ccc3[nH]2)C1 [Compound 129, 2-(2-(2-((1R,3s)-3-((((2R,3S,4R,5R)-5-(6-amino-9H-purin-9-yl)-3,4-dihydroxytetrahydro-furan-2-yl)methyl)(isopropyl)amino)cyclobutyl)ethyl)-1H-benzo[d]imidazol-5-yl)-2-methylpropanenitrile]",< 100
6,"CN(C[C@H]1O[C@@H](n2cnc3c(N)ncnc32)[C@H](O)[C@@H]1O)C1CC(CCc2nc3cc(C4(C#N)CC4)ccc3[nH]2)C1 (stereo partly drawn) [Compound 130, 1-(2-(2-(3-((((2R,3S,4R,5R)-5-(6-amino-9H-purin-9-yl)-3,4-dihydroxytetrahydro-furan-2-yl)methyl)(methyl)amino)cyclobutyl)ethyl)-1H-benzo[d]imidazol-5-yl)cyclo-propanecarbonitrile]",< 100
7,"CN(C[C@H]1O[C@@H](n2cnc3c(N)ncnc32)[C@H](O)[C@@H]1O)[C@H]1C[C@@H](CCc2nc3cc(C4CCC4)ccc3[nH]2)C1 [Compound 131, (2R,3R,4S,5R)-2-(6-amino-9H-purin-9-yl)-5-((((1r,3S)-3-(2-(5-cyclobutyl-1H-benzo[d]imidazol-2-yl)ethyl)cyclobutyl) (methyl)amino)methyl) tetrahydrofuran-3,4-diol]",< 100
8,"CN(C[C@H]1O[C@@H](n2cnc3c(N)ncnc32)[C@H](O)[C@@H]1O)[C@H]1C[C@H](CCc2nc3cc(C4CCC4)ccc3[nH]2)C1 [Compound 132, (2R,3R,4S,5R)-2-(6-amino-9H-purin-9-yl)-5-((((1s,3R)-3-(2-(5-cyclobutyl-1H-benzo[d]imidazol-2-yl)ethyl)cyclobutyl) (methyl)amino)methyl) tetrahydrofuran-3,4-diol]",< 100
9,"CN(C[C@H]1O[C@@H](n2cnc3c(N)ncnc32)[C@H](O)[C@@H]1O)[C@H]1C[C@@H](CCc2nc3cc(C4CC4)ccc3[nH]2)C1 [Compound 133, (2R,3R,4S,5R)-2-(6-amino-9H-purin-9-yl)-5-((((1r,3S)-3-(2-(5-cyclopropyl-1H-benzo[d]imidazol-2-yl)ethyl)cyclobutyl) (methyl)amino)methyl) tetrahydrofuran-3,4-diol]",< 100
10,"CN(C[C@H]1O[C@@H](n2cnc3c(N)ncnc32)[C@H](O)[C@@H]1O)[C@H]1C[C@H](CCc2nc3cc(C4CC4)ccc3[nH]2)C1 [Compound 134, (2R,3R,4S,5R)-2-(6-amino-9H-purin-9-yl)-5-((((1s,3R)-3-(2-(5-cyclopropyl-1H-benzo[d]imidazol-2-yl)ethyl)cyclobutyl) (methyl)amino)methyl) tetrahydrofuran-3,4-diol]",< 100
11,"CC(C)N(C[C@H]1O[C@@H](n2cnc3c(N)ncnc32)[C@H](O)[C@@H]1O)[C@H]1C[C@@H](CCc2nc3cc(C4(C#N)CC4)ccc3[nH]2)C1 [Compound 135, 1-(2-(2-((1S,3r)-3-((((2R,3S,4R,5R)-5-(6-amino-9H-purin-9-yl)-3,4-dihydroxytetrahydro-furan-2-yl)methyl)(isopropyl)amino)cyclobutyl)ethyl)-1H-benzo[d]imidazol-5-yl)cyclo-propanecarbonitrile]",< 100
12,"CC(C)N(C[C@H]1O[C@@H](n2cnc3c(N)ncnc32)[C@H](O)[C@@H]1O)[C@H]1C[C@H](CCc2nc3cc(C4(C#N)CC4)ccc3[nH]2)C1 [Compound 136, 1-(2-(2-((1R,3s)-3-((((2R,3S,4R,5R)-5-(6-amino-9H-purin-9-yl)-3,4-dihydroxytetrahydro-furan-2-yl)methyl)(isopropyl)amino)cyclobutyl)ethyl)-1H-benzo[d]imidazol-5-yl)cyclo-propanecarbonitrile]",< 100
13,"CN(C[C@H]1O[C@@H](n2cnc3c(N)ncnc32)[C@H](O)[C@@H]1O)[C@H]1C[C@@H](CCc2nc3cc(C4(C#N)CC4)ccc3[nH]2)C1 [Compound 137, 1-(2-(2-((1S,3r)-3-((((2R,3S,4R,5R)-5-(6-amino-9H-purin-9-yl)-3,4-dihydroxytetrahydro-furan-2-yl)methyl)(methyl)amino)cyclobutyl)ethyl)-1H-benzo[d]imidazol-5-yl)cyclo-propanecarbonitrile]",< 100
14,"CN(C[C@H]1O[C@@H](n2cnc3c(N)ncnc32)[C@H](O)[C@@H]1O)[C@H]1C[C@H](CCc2nc3cc(C4(C#N)CC4)ccc3[nH]2)C1 [Compound 138, 1-(2-(2-((1R,3s)-3-((((2R,3S,4R,5R)-5-(6-amino-9H-purin-9-yl)-3,4-dihydroxytetrahydro-furan-2-yl)methyl)(methyl)amino)cyclobutyl)ethyl)-1H-benzo[d]imidazol-5-yl)cyclo-propanecarbonitrile]",< 100
15,"CC(C)N(C[C@H]1O[C@@H](n2cnc3c(N)ncnc32)[C@H](O)[C@@H]1O)C1CC(CCc2nc3cc(C4(C)CC4)ccc3[nH]2)C1 (stereo partly drawn) [Compound 139, (2R,3R,4S,5R)-2-(6-amino-9H-purin-9-yl)-5-((isopropyl(3-(2-(5-(1-methylcyclopropyl)-1H-benzo[d]imidazol-2-yl)ethyl)cyclobutyl)amino)methyl)tetrahydro-furan-3,4-diol]",< 100
16,"COCC(C)(C)c1ccc2[nH]c(CCC3CC(N(C)C[C@H]4O[C@@H](n5cnc6c(N)ncnc65)[C@H](O)[C@@H]4O)C3)nc2c1 (stereo partly drawn) [Compound 140, (2R,3R,4S,5R)-2-(6-amino-9H-purin-9-yl)-5-(((3-(2-(5-(1-methoxy-2-methylpropan-2-yl)-1H-benzo[d]imidazol-2-yl)ethyl)cyclobutyl) (methyl)amino)methyl) tetrahydrofuran-3,4-diol]",< 100
